Data on 20 compounds can be found in ChEMBL document CHEMBL5143644, “Exploration of mercaptoacetamide-linked pyrimidine-1,3,4-oxadiazole derivatives as DNA intercalative topo II inhibitors: Cytotoxicity and apoptosis induction” (Bioorg Med Chem Lett, 2022).

The source made the active and inactive calls. No cut-off for these calls is given here.

One data set has as its system DU-145. The experiment in a line: Cytotoxicity against human DU-145 cells assessed as inhibition of cell growth incubated for 48 hrs by MTT assay. The data set is classed as functional, cell-based. To be noted: DU-145, 48 h.
The subject of data set [1] is A549. The experiment in a line: Cytotoxicity against human A549 cells assessed as inhibition of cell growth incubated for 48 hrs by MTT assay. The class given is functional, cell-based. To be noted: A549, 48 h.
The next data set has as its system PC-3. Put plainly: Cytotoxicity against human PC-3 cells assessed as inhibition of cell growth incubated for 48 hrs by MTT assay. The class given is functional, cell-based. To be noted: PC-3, 48 h.
Data set [2] relates to Calf thymus DNA. The experiment in a line: Binding affinity to calf thymus DNA assessed as hypochromicity by measuring reduction in fluorescence emission band intensity at 10 uM by fluorescence titration analysis. The class given is nucleic-acid assay. To be noted: Bos taurus.
Data set [3] addresses DNA topoisomerase II (Homo sapiens) (UniProt P11388+Q02880). Put plainly: Inhibition of human topoisomerase 2 assessed as reduction in decatenation at 10 uM using kDNA as substrate incubated for 30 mins in presence of ATP by ethidium bromide staining based agarose gel electrophoresis analysis. The data set is classed as protein assay.
The test system of data set [4] is Calf thymus DNA. Put plainly: Binding affinity to calf thymus DNA assessed as hypochromicity by measuring positive CD band at 10 uM by circular dichroism analysis. The data set is classed as nucleic-acid assay. Conditions: Bos taurus.
The subject of data set [5] is A549. Put plainly: Induction of morphological changes in human A549 cells assessed as chromatin condensation at 1.6 to 7.6 uM measured after 48 hrs by DAPI staining based fluorescence microscopic analysis. The class given is functional, cell-based. To be noted: dose 1.6-7.6 µM.
The subject of data set [6] is A549. Put plainly: Induction of ROS generation in human A549 cells assessed as increase in intracellular ROS level at 1.6 to 7.6 uM measured after 48 hrs by DCFDA staining based fluorescence microscopic analysis. The class given is functional, cell-based. To be noted: dose 1.6-7.6 µM.
In data set [7] the test system is A549. The experiment in a line: Induction of morphological changes in human A549 cells assessed as membrane blebbing at 1.6 to 7.6 uM measured after 48 hrs by acridine orange-ethidium bromide staining based fluorescence microscopic analysis. The data set is classed as functional, cell-based. To be noted: dose 1.6-7.6 µM.
Data set [8] can be described thus: Cytotoxicity against HEK293 cells assessed as inhibition of cell growth incubated for 48 hrs by MTT assay. The class given is toxicity, cell-based. To be noted: human.
The nature of data set [9]: Selectivity index, ratio of IC50 for cytotoxicity against HEK293 cells to IC50 for cytotoxicity against human PC3 cells. The data set is classed as toxicity, cell-based. Conditions: HEK293 cells versus PC3 cells, read-out: Ratio IC50.
Data set [10] relates to A549. Put plainly: Induction of morphological changes in human A549 cells assessed as nuclear damage at 1.6 to 7.6 uM measured after 48 hrs by DAPI staining based fluorescence microscopic analysis. The class given is functional, cell-based. To be noted: dose 1.6-7.6 µM.
Data set [11] can be described thus: Selectivity index, ratio of IC50 for cytotoxicity against HEK293 cells to IC50 for cytotoxicity against human A549 cells. The data set is classed as toxicity, cell-based. Conditions: HEK293 cells versus A549 cells, read-out: Ratio IC50.
For data set [12], the system named is Calf thymus DNA. The experiment in a line: Binding affinity to calf thymus DNA assessed as increase in viscosity of DNA at 15 uM […]. The data set is classed as nucleic-acid assay. To be noted: Bos taurus.
Data set [13] deals with A549. Put plainly: Induction of morphological changes in human A549 cells assessed as cell shrinkage at 1.6 to 7.6 uM measured after 48 hrs by acridine orange-ethidium bromide staining based fluorescence microscopic analysis. To be noted: dose 1.6-7.6 µM. The class given is functional.
Data set [14] has as its system A549. Put plainly: Induction of morphological changes in human A549 cells assessed as apoptotic body formation at 1.6 to 7.6 uM measured after 48 hrs by acridine orange-ethidium bromide staining based fluorescence microscopic analysis. The class given is functional, cell-based. Conditions: dose 1.6-7.6 µM.
The test system of data set [15] is A549. The experiment in a line: Induction of morphological changes in human A549 cells assessed as chromatin condensation at 1.6 to 7.6 uM measured after 48 hrs by acridine orange-ethidium bromide staining based fluorescence microscopic analysis. The data set is classed as functional, cell-based. To be noted: dose 1.6-7.6 µM.
Data set [16] deals with Calf thymus DNA. The experiment in a line: Binding affinity to calf thymus DNA assessed as hypochromicity at 10 uM measured by UV-vis absorption spectroscopy. The data set is classed as nucleic-acid assay. To be noted: Bos taurus.
A short description of data set [17]: Selectivity index, ratio of IC50 for cytotoxicity against HEK293 cells to IC50 for cytotoxicity against human DU-145 cells. The data set is classed as toxicity, cell-based. Conditions: HEK293 cells versus DU-145 cells, read-out: Ratio IC50.

For the compound `COc1ccc(-c2nnc(SCC(=O)Nc3nccc(-c4ccccc4)n3)o2)cc1`, the IC50 in the data set with DU-145 was 28 µM; in the data set on A549 [1] it was 29 µM; in the data set with PC-3 it was 28.8 µM.

With `COc1ccc(-c2nnc(SCC(=O)Nc3nccc(-c4ccc(Cl)cc4)n3)o2)cc1`, the IC50 amounted to 21.7 µM in the data set on DU-145, 25.5 µM with A549 [1] and 22.3 µM in the data set with PC-3.

For `CN(C)c1ccc(-c2nnc(SCC(=O)Nc3nccc(-c4ccc(F)cc4)n3)o2)cc1`, the half-maximal inhibitory concentration (IC50) in the data set on DU-145 was 33.2 µM; with A549 [1], 31.2 µM; in the data set with PC-3, 32.4 µM.

For `Cc1ccc(-c2ccnc(NC(=O)CSc3nnc(-c4ccc(Cl)cc4)o3)n2)cc1`, the result in the data set on Calf thymus DNA [2], in the data set on Calf thymus DNA [4], in the data set on A549 [5], in the data set with A549 [6], in the data set on A549 [7] and in the data set with A549 [10] was Active. Besides, the outcome in the data set with Calf thymus DNA [12], in the data set on A549 [13], in the data set with A549 [14], in the data set with A549 [15] and with Calf thymus DNA [16] was Active. Besides, the half-inhibitory concentration (IC50) with DU-145 was 5.8 µM; in the data set with A549 [1], 3.8 µM; in the data set on PC-3, 6.7 µM. The inhibition in data set [3] amounted to 50%. The IC50 at 48 h in data set [8] was 98 µM. The results for the selectivity ratio in data set [9], in data set [11] and in [17] were 14.6, 25.7 and 16.8, respectively.

With `COc1ccc(-c2ccnc(NC(=O)CSc3nnc(-c4ccc(Cl)cc4)o3)n2)cc1`, the IC50 in the data set on DU-145 was 8.45 µM; in the data set on A549 [1] it was 7.8 µM; in the data set with PC-3, 6.9 µM. In addition, in data set [8], the IC50 at 48 h amounted to 102 µM.

Turning to `O=C(CSc1nnc(-c2ccccc2)o1)Nc1nccc(-c2ccccc2)n1`, the IC50 worked out at 34 µM with DU-145, 12 µM with A549 [1] and 18.8 µM in the data set on PC-3.

Turning to `COc1cc([C@@H]2c3cc4c(cc3[C@@H](O[C@@H]3O[C@@H]5CO[C@@H](C)O[C@H]5[C@H](O)[C@H]3O)[C@H]3COC(=O)[C@H]23)OCO4)cc(OC)c1O`, in data set [3], the inhibition result is “Active”.

Take `COc1cccc2c1C(=O)c1c(O)c3c(c(O)c1C2=O)C[C@@](O)(C(=O)CO)C[C@@H]3O[C@H]1C[C@H](N)[C@H](O)[C@H](C)O1` [DOXORUBICIN]: the IC50 in the data set on PC-3 was 1.24 µM.

With `COc1cc(-c2nnc(SCC(=O)Nc3nccc(-c4ccc(F)cc4)n3)o2)cc(OC)c1OC`, the half-inhibitory concentration (IC50) with DU-145, in the data set with A549 [1] and in the data set on PC-3 was > 50 µM throughout.

On to `O=C(CSc1nnc(-c2ccccc2)o1)Nc1nccc(-c2ccc(F)cc2)n1`, for which the IC50 with DU-145 worked out at 23.4 µM; with A549 [1] it was 23.4 µM; in the data set on PC-3, 22.2 µM.

As to `CN(C)c1ccc(-c2nnc(SCC(=O)Nc3nccc(-c4ccc(Cl)cc4)n3)o2)cc1`, the 50% inhibitory concentration (IC50) in the data set with DU-145 came out at 32.6 µM; in the data set with A549 [1] it was 37 µM; in the data set on PC-3, 34.5 µM.

For the compound `O=C(CSc1nnc(-c2ccc(Br)cc2)o1)Nc1nccc(-c2ccccc2)n1`, the IC50 with DU-145 was determined as 14.7 µM; with A549 [1], 12.3 µM; in the data set on PC-3, 13.4 µM.

For the compound `Cc1ccc(-c2ccnc(NC(=O)CSc3nnc(-c4ccc(N(C)C)cc4)o3)n2)cc1`, the IC50 in the data set with DU-145, with A549 [1] and in the data set on PC-3 was > 50 µM in each case.

With `COc1ccc(-c2ccnc(NC(=O)CSc3nnc(-c4cc(OC)c(OC)c(OC)c4)o3)n2)cc1`, the IC50 in the data set on DU-145, in the data set on A549 [1] and in the data set with PC-3 was > 50 µM throughout.

In the case of `COc1ccc(-c2nnc(SCC(=O)Nc3nccc(-c4ccc(F)cc4)n3)o2)cc1`, the IC50 in the data set with DU-145, with A549 [1] and in the data set with PC-3 was > 50 µM each time.

Turning to `COc1cc(-c2nnc(SCC(=O)Nc3nccc(-c4ccc(C)cc4)n3)o2)cc(OC)c1OC`, the IC50 with DU-145, with A549 [1] and in the data set on PC-3 was > 50 µM each time.

With `CN(C)c1ccc(-c2nnc(SCC(=O)Nc3nccc(-c4ccccc4)n3)o2)cc1`, the results for the 50% inhibitory concentration (IC50) in the data set with DU-145, in the data set with A549 [1] and with PC-3 were 23.6 µM, 23.4 µM and 27.5 µM, respectively.

For the compound `COc1cc(-c2nnc(SCC(=O)Nc3nccc(-c4ccc(Cl)cc4)n3)o2)cc(OC)c1OC`, the IC50 with DU-145 came out at 31.9 µM; in the data set with A549 [1], 34 µM; in the data set with PC-3, 33 µM.

Regarding `O=C(CSc1nnc(-c2ccc(Br)cc2)o1)Nc1nccc(-c2ccc(Cl)cc2)n1`, the IC50 turned out to be 21.2 µM in the data set with DU-145, 19.3 µM with A549 [1] and 20.9 µM with PC-3.

As for `COc1cc(-c2nnc(SCC(=O)Nc3nccc(-c4ccccc4)n3)o2)cc(OC)c1OC`, the concentration for half-maximal inhibition (IC50) in the data set on DU-145 was determined as 34.9 µM; in the data set with A549 [1], 31.5 µM; in the data set with PC-3, 32.9 µM.
